Data published in PubChem BioAssay (NCI).
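In this assay, cells in 96-well plates receive the compound at five concentrations for 48 hours. Endpoints are linearly interpolated between the surrounding concentrations. GI50 = concentration required for 50% inhibition of growth. TGI is the concentration that stops growth completely.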

Assays:
Assay in all cases: NCI-60 cell line screen, 48 h
CAKI-1 renal = tested on: CAKI-1 renal
HL-60(TB) leukemia = tested on: HL-60(TB) leukemia
K-562 leukemia = tested on: K-562 leukemia
KM12 colon = tested on: KM12 colon
M14 melanoma = tested on: M14 melanoma
NCI-H460 lung = tested on: NCI-H460 lung
RXF 393 renal = tested on: RXF 393 renal
SK-MEL-5 melanoma = tested on: SK-MEL-5 melanoma
UACC-257 melanoma = tested on: UACC-257 melanoma
NCI-H23 lung = tested on: NCI-H23 lung

SMILES | TGI (CAKI-1 renal) | TGI (HL-60(TB) leukemia) | TGI (K-562 leukemia) | TGI (KM12 colon) | TGI (M14 melanoma) | TGI (NCI-H460 lung) | TGI (RXF 393 renal) | TGI (SK-MEL-5 melanoma) | TGI (UACC-257 melanoma) | TGI (NCI-H23 lung) | GI50 (CAKI-1 renal) | GI50 (HL-60(TB) leukemia) | GI50 (K-562 leukemia) | GI50 (KM12 colon) | GI50 (M14 melanoma) | GI50 (NCI-H23 lung) | GI50 (NCI-H460 lung) | GI50 (SK-MEL-5 melanoma) | GI50 (UACC-257 melanoma) | GI50 (RXF 393 renal)
CCOC(=O)C1=C(O)CSC1=Nc1ccc(N=C2SCC(O)=C2C(=O)OCC)cc1 | 30.8 µM | > 100 µM | > 100 µM | 44.9 µM | 52.5 µM | 92 µM | 32.6 µM | 44.3 µM | 75.5 µM | – | – | – | – | – | – | – | – | – | – | –
O=C(Nc1ccc(Cl)cc1)C(=O)C1=C(O)c2ccccc2OC1 | > 100 µM | > 100 µM | > 100 µM | > 100 µM | > 100 µM | > 100 µM | – | > 100 µM | > 100 µM | > 100 µM | – | – | – | – | – | – | – | – | – | –
Cc1nc(N=C(N)N)nc2ccc3ccccc3c12 | 10.9 µM | 5.41 µM | 6.13 µM | 4.37 µM | 3.43 µM | 6.56 µM | – | 3.32 µM | 4.17 µM | 7.31 µM | 2.5 µM | 2.25 µM | 1.43 µM | 1.03 µM | 1.59 µM | 2.33 µM | 2.31 µM | 1.51 µM | 1.46 µM | –
COc1ccc(C(=O)Nc2ccccc2C#N)cc1 | > 100 µM | > 100 µM | > 100 µM | > 100 µM | – | > 100 µM | > 100 µM | > 100 µM | > 100 µM | > 100 µM | – | – | – | – | – | – | – | – | – | –
CC1(C)CC[C@]2(C(=O)O)CCC3(C)C(=CCC4[C@@]5(C)CC[C@H](OC6OCC(O)C(O)C6OC6OC(CO)C(O)C(O)C6O)C(C)(C)C5CC[C@]43C)C2C1 (stereo partly drawn) | 3.06 µM | – | – | 4.8 µM | 3.45 µM | 4.22 µM | 3.53 µM | 11.4 µM | 9.21 µM | 4.2 µM | – | – | – | – | – | – | – | – | – | –
Fc1cccc(C=NC23CC4CC(CC(C4)C2)C3)c1 | > 100 µM | > 100 µM | > 100 µM | > 100 µM | > 100 µM | > 100 µM | > 100 µM | – | > 100 µM | > 100 µM | – | – | – | – | – | – | – | – | – | –
CC(=O)[CH-]C(=O)c1ccccc1.CC(=O)[CH-]C(=O)c1ccccc1.[O-]Cc1cccs1.[O-]Cc1cccs1.[Ti+4] | > 100 µM | > 100 µM | > 100 µM | > 100 µM | > 100 µM | > 100 µM | – | > 100 µM | > 100 µM | – | 71.6 µM | 4.26 µM | 31.2 µM | 47.9 µM | 21.6 µM | – | 29.4 µM | > 100 µM | > 100 µM | –
Clc1ccc(C2=NN(c3ccccc3)C3c4cc(Br)ccc4OCC23)cc1 (stereo not drawn) | – | > 100 µM | > 100 µM | > 100 µM | – | > 100 µM | > 100 µM | > 100 µM | > 100 µM | > 100 µM | – | – | – | – | – | – | – | – | – | –
Nc1ccc(C(=O)O)c2[nH]c3ccccc3c(=O)c12 | > 100 µM | > 100 µM | > 100 µM | > 100 µM | > 100 µM | > 100 µM | > 100 µM | > 100 µM | > 100 µM | – | – | – | – | – | – | – | – | – | – | –
C=C(CNCCc1ccc(O)cc1)[C@@H]1CC[C@]2(CO)CC[C@]3(C)[C@H](CC[C@@H]4[C@@]5(C)CCC(NCCO)C(C)(C)[C@@H]5CC[C@]43C)[C@@H]12 (stereo partly drawn) | 3.29 µM | – | – | 3.16 µM | 3.13 µM | 3.29 µM | 2.63 µM | 3.21 µM | 3.27 µM | 3.49 µM | 1.65 µM | – | – | 1.66 µM | 1.61 µM | 1.78 µM | 1.75 µM | 1.73 µM | 1.86 µM | 1.27 µM
CCOC(=O)C12CN(C34CC5CC(CC(C5)C3)C4)CC(C(=O)OCC)(C1=O)C(c1ccccc1)OC2c1ccccc1 (stereo not drawn) | – | > 100 µM | > 100 µM | > 100 µM | > 100 µM | > 100 µM | > 100 µM | > 100 µM | > 100 µM | > 100 µM | – | – | – | – | – | – | – | – | – | –
Cc1cc(C)c2c(c1C)CN1CN2Cc2c(C)c(C)cc(C)c21 | > 100 µM | 46.3 µM | > 100 µM | > 100 µM | > 100 µM | > 100 µM | 93.8 µM | – | – | > 100 µM | – | – | – | – | – | – | – | – | – | –
COc1ccc2c(c1)C(=O)/C(=C/c1ccc(OCC(=O)c3ccc(Cl)cc3)cc1)O2 | 90.1 µM | 16.9 µM | 4.64 µM | 30.1 µM | – | > 100 µM | 42.4 µM | 59.3 µM | > 100 µM | 31.7 µM | 16.4 µM | 2.89 µM | 1.77 µM | 15.6 µM | – | 11.6 µM | 29.7 µM | 17.2 µM | > 100 µM | 17.3 µM
CC/C(=C(/CC)c1ccc(OP(=O)([O-])[O-])cc1)c1ccc(OP(=O)([O-])[O-])cc1.N.N.N.N.[Pt+4].[Pt+4] | – | 16.4 µM | > 100 µM | > 100 µM | 6.87 µM | 7.62 µM | 6.76 µM | 9.34 µM | 10.1 µM | – | – | 0.518 µM | 4.63 µM | 22 µM | 1.63 µM | – | 0.933 µM | 2.22 µM | 2.99 µM | 2.4 µM
COC(=O)[C@@]12C3=NO[C@]1(C(=O)OC)C(O[Si](C)(C)C(C)(C)C)C1OC(C)(C)OC1[C@@H]2[C@@H](OCc1ccccc1)CC3 (stereo partly drawn) | – | 13.9 µM | > 100 µM | > 100 µM | > 100 µM | – | – | > 100 µM | – | > 100 µM | – | – | – | – | – | – | – | – | – | –
COc1cc(C2c3cc4c(cc3[C@@H](OCCN)[C@H]3COC(=O)C23)OCO4)cc(OC)c1O (stereo partly drawn) | 1.52 µM | 0.0633 µM | – | – | 3.34 µM | > 100 µM | 2.35 µM | 1.49 µM | 18.2 µM | 0.731 µM | – | – | – | – | – | – | – | – | – | –
Cn1cc(-c2nonc2-c2cn(C)c3ccc(Br)cc23)c2ccccc21 | > 100 µM | > 100 µM | > 100 µM | > 100 µM | > 100 µM | > 100 µM | 5.46 µM | > 100 µM | – | > 100 µM | 4.33 µM | 2.95 µM | 1.08 µM | 2.63 µM | 3.93 µM | 4.72 µM | 3.31 µM | 3.37 µM | – | 1.99 µM
Cc1ccc(C)c(NC(=O)CCC(=O)CC(=O)C(C)(C)C)c1 | > 100 µM | – | > 100 µM | > 100 µM | > 100 µM | > 100 µM | > 100 µM | > 100 µM | > 100 µM | > 100 µM | – | – | – | – | – | – | – | – | – | –
